Here are results for 34 compounds from ChEMBL document CHEMBL3616434, “Identification of Phenoxyalkylbenzimidazoles with Antitubercular Activity” (J Med Chem, 2015).

For orientation: MIC means the lowest concentration that inhibits growth of the organism.

Data set [1] in a line: Selectivity index, ratio of TC50 for African green monkey Vero cells to MIC for Mycobacterium tuberculosis H37Rv ATCC 25618.
A short description of data set [2]: Cytotoxicity against African green monkey Vero cells after 2 days by luminescent assay. The format is cell-based. The following applies: chlorocebus sabaeus, read-out: TC50.
Data set [3] relates to Mycobacterium tuberculosis. The experiment in a line: Antitubercular activity against Mycobacterium tuberculosis H37Rv ATCC 25618 under aerobic condition after 5 days. It is filed as functional. To be noted: H37Rv ATCC 25618, 120 h.

Values after ≈ are worked out from the molar mass of the structure shown.

Regarding `CCc1nc2ccccc2n1CCCCOc1ccc(C#N)cc1`, the Ratio in data set [1] is listed as 1.7. Also, the CC50 at 48 h in data set [2] is 27 µM. The same compound gave an MIC in data set [3] of 16 µM (≈ 5.11 µg/mL).
Consider `CCc1nc2ccccc2n1CCCCOc1ccc(C)c(C)c1`, for which the Ratio in data set [1] was 53. Also, the CC50 at 48 h in data set [2] turned out to be 14 µM. 0.3 µM (≈ 0.0967 µg/mL) was the least that counted as inhibitory in data set [3] (MIC).
For `CCc1nc2ccccc2n1CCCCOc1ccccc1C` the same measures were 50, 16 µM and 0.32 µM (≈ 0.0987 µg/mL).
The like results for `CCc1nc2ccc(OC)cc2n1CCCCOc1ccccc1` were, in that order, 30, 27 µM and 0.9 µM (≈ 0.292 µg/mL).
For `CCc1nc2ccccc2n1CCCCOc1cc(C)c(CN2CCOCC2)cc1C`, the Ratio in data set [1] stood at 15. In data set [2], the CC50 at 48 h stood at 48 µM. The same compound yielded an MIC in data set [3] of 1.3 µM (≈ 0.548 µg/mL).
For `CCc1nc2ccc(C)cc2n1CCCCNc1ccc(C)cc1C` the same measures were 65, 20 µM and 0.31 µM (≈ 0.104 µg/mL).
For the compound `c1ccc(OCCCCn2cnc3ccccc32)cc1`, in data set [3], the MIC is greater than 20 µM.
Take `CCc1nc2ccccc2n1CCCCOc1cccnc1`: the CC50 at 48 h in data set [2] is greater than 50 µM. In data set [3], this compound gave an MIC greater than 20 µM.
Take `CCc1nc2ccccc2n1CCCCOc1cccc(C)c1`: the Ratio in data set [1] is on record as 45. Moreover, in data set [2], the CC50 at 48 h turned out to be 19 µM. The compound further displayed an MIC in data set [3] of 0.42 µM (≈ 0.13 µg/mL).
Turning to `CCc1nc2ccccc2n1CCCCOc1ccc(Cl)cc1F`, in data set [1], the Ratio amounted to 3.8. Moreover, in data set [2], the CC50 at 48 h was 5.7 µM. The compound further came in with an MIC in data set [3] of 1.5 µM (≈ 0.52 µg/mL).
In the case of `CCc1cc2ccccc2n1CCCCOc1ccc(C)c(Cl)c1`, the MIC in data set [3] is greater than 20 µM.
Compound `CCc1nc2ccncc2n1CCCCOc1ccccc1` yielded an MIC in data set [3] greater than 20 µM.
With `CC(=O)Nc1nc2ccc(C)cc2n1CCCCOc1ccc(C)c(Cl)c1`, the Ratio in data set [1] was determined as 0.8. Moreover, in data set [2], the CC50 at 48 h is 8.3 µM. The MIC in data set [3] was determined as 11 µM (≈ 4.24 µg/mL).
As to `CN1CCN(c2nc3ccccc3n2CCCCOc2ccccc2)CC1`, the minimal inhibitory concentration (MIC) in data set [3] is greater than 20 µM.
With `CCc1nc2ccccc2n1CCCCOC`, the CC50 at 48 h in data set [2] was greater than 50 µM. In addition, in data set [3], the MIC is greater than 20 µM.
`CCc1nc2ccccc2n1CC1COc2ccccc2O1` (stereo unspecified) returned an MIC in data set [3] greater than 20 µM.
Take `Cc1nc2ccccc2n1CCCCOc1ccccc1`: the CC50 at 48 h in data set [2] is greater than 50 µM. Further, in data set [3], the MIC was greater than 20 µM.
The like results for `c1ccc(OCCCCn2ncc3ccccc32)cc1` were, in that order, greater than 50 µM and greater than 20 µM.
In turn, `Cc1nc2ccccc2n1CCOc1ccc(Cl)cc1` had a minimum inhibitory concentration (MIC) in data set [3] greater than 20 µM.
For `CCc1nc2ccccc2n1CCOc1ccc(Cl)cc1`, the MIC in data set [3] is greater than 20 µM.
Turning to `CCc1nc2ccccc2n1CCCCOc1ccc(N2CCOCC2)cc1`, the CC50 at 48 h in data set [2] worked out at 32 µM. The compound also had an MIC in data set [3] greater than 20 µM.
For `Cc1nc2ccccc2n1CCCOc1ccccc1` the same measures were greater than 50 µM and greater than 20 µM.
For `CCc1nc2ccccc2n1CCCCOc1ccncc1` the same measures were greater than 50 µM and greater than 20 µM.
For the compound `CCc1cc2ccccc2n1CCCCNc1ccc(C)c(Br)c1`, the minimal inhibitory concentration (MIC) in data set [3] is greater than 20 µM.
The same measure, in the same setting: to `CCc1nc2ccccc2n1CCOc1ccccc1` belongs greater than 20 µM; to `FC(F)(F)c1nc2ccccc2n1CCCCOc1ccccc1`, greater than 20 µM; to `Clc1nc2ccccc2n1CCCCOc1ccccc1`, greater than 20 µM.
On to `CCc1cc2ccccc2n1CCCCSc1nnc(-c2ccc(Cl)cc2)o1`, for which the CC50 at 48 h in data set [2] was greater than 50 µM. This compound returned a minimum inhibitory concentration (MIC) in data set [3] greater than 20 µM.
Take `CCc1nc2ccccc2n1CCCCOc1ccnc2ccccc12`: the CC50 at 48 h in data set [2] was greater than 50 µM. In data set [3], this compound came in with an MIC greater than 20 µM.
`Nc1nc2ccccc2n1CCCCOc1ccccc1`: the MIC in data set [3] is greater than 20 µM.
Same read-out and setting: next, `CCc1nc2cc(OC)ccc2n1CCCCOc1ccccc1`: greater than 20 µM; `Cc1nc2ccccc2n1CCOc1ccccc1`: greater than 20 µM.
The same measure, in the same setting: next, `CCc1nc2cnccc2n1CCCCOc1ccccc1`: greater than 20 µM; `Cc1ccc2nc(C(C)O)n(CCCCOc3ccccc3)c2c1` (stereo unspecified): 20 µM (≈ 6.49 µg/mL).
